Assay results from ChEMBL document CHEMBL4376833, “Influence of Non-natural Cationic Amino Acids on the Biological Activity Profile of Innate Defense Regulator Peptides” (J Med Chem, 2019).
Calls of active or inactive are those of the source. How the calls were made is not given here. Non-standard residues stand in square brackets, D forms with d. Residues, ends and D or L forms follow the SMILES beside them. Agb = N=C(N)NCC[C@H](N)C(=O)O; Agp = N=C(N)NC[C@H](N)C(=O)O; Orn = NCCC[C@H](N)C(=O)O; Dab = NCC[C@H](N)C(=O)O; Dap = NC[C@H](N)C(=O)O

Tests used:
Staphylococcus aureus [1] = assay: Antibacterial activity against methicillin-resistant Staphylococcus aureus assessed as alteration in bacterial growth incubated for overnight by microtiter plate based spectrophotometric analysis; assay type: functional, organism-based
Staphylococcus aureus [2] = assay: Antibiofilm activity against methicillin-resistant Staphylococcus aureus assessed as inhibition of biofilm formation by measuring residual biofilm growth incubated for overnight at 10-fold dilution by crystal violet staining based microtiter plate assay relative to control; assay type: functional
Staphylococcus aureus [3] = assay: Antibiofilm activity against methicillin-resistant Staphylococcus aureus assessed as inhibition of biofilm formation incubated for overnight by crystal violet staining based microtiter plate assay; assay type: functional, organism-based

Compound	Activity (Staphylococcus aureus [1])	residual biofilm growth (% of control) (Staphylococcus aureus [2]) [%]	inhibition (Staphylococcus aureus [3])
CC[C@H](C)[C@H](NC(=O)[C@H](CCCNC(=N)N)NC(=O)[C@@H](NC(=O)[C@H](C)NC(=O)[C@@H](NC(=O)[C@@H](NC(=O)[C@H](CC(C)C)NC(=O)[C@H](CCCNC(=N)N)NC(=O)[C@@H](N)C(C)C)[C@@H](C)CC)C(C)C)C(C)C)C(=O)N[C@@H](Cc1c[nH]c2ccccc12)C(=O)N[C@@H](CN)C(=O)N[C@@H](CCCNC(=N)N)C(N)=O (H-VRLIVAVRIW[Dap]R-NH2)	Active	19.9	Dose-dependent effect
CC[C@H](C)[C@H](NC(=O)[C@H](CCCNC(=N)N)NC(=O)[C@@H](NC(=O)[C@H](C)NC(=O)[C@@H](NC(=O)[C@@H](NC(=O)[C@H](CC(C)C)NC(=O)[C@H](CCCNC(=N)N)NC(=O)[C@@H](N)CN)[C@@H](C)CC)C(C)C)C(C)C)C(=O)N[C@@H](Cc1c[nH]c2ccccc12)C(=O)N[C@@H](CCCNC(=N)N)C(=O)N[C@@H](CCCNC(=N)N)C(N)=O (H-[Dap]RLIVAVRIWRR-NH2)	Active	8.5	Dose-dependent effect
CC[C@H](C)[C@H](NC(=O)[C@H](CCCNC(=N)N)NC(=O)[C@@H](NC(=O)[C@H](C)NC(=O)[C@@H](NC(=O)[C@@H](NC(=O)[C@H](CC(C)C)NC(=O)[C@H](CCCNC(=N)N)NC(=O)[C@@H](N)CNC(=N)N)[C@@H](C)CC)C(C)C)C(C)C)C(=O)N[C@@H](Cc1c[nH]c2ccccc12)C(=O)N[C@@H](CCCNC(=N)N)C(=O)N[C@@H](CCCNC(=N)N)C(N)=O (H-[Agp]RLIVAVRIWRR-NH2)	Active	10.6	Dose-dependent effect
CC[C@H](C)[C@H](NC(=O)[C@H](CCCNC(=N)N)NC(=O)[C@@H](NC(=O)[C@H](CCCN)NC(=O)[C@@H](NC(=O)[C@@H](NC(=O)[C@H](CC(C)C)NC(=O)[C@H](CCCNC(=N)N)NC(=O)[C@@H](N)C(C)C)[C@@H](C)CC)C(C)C)C(C)C)C(=O)N[C@@H](Cc1c[nH]c2ccccc12)C(=O)N[C@@H](CCCNC(=N)N)C(=O)N[C@@H](CCCNC(=N)N)C(N)=O (H-VRLIV[Orn]VRIWRR-NH2)	Active	14.2	Dose-dependent effect
CC[C@H](C)[C@H](NC(=O)[C@H](CCCNC(=N)N)NC(=O)[C@H](CCCN)NC(=O)[C@H](C)NC(=O)[C@@H](NC(=O)[C@@H](NC(=O)[C@H](CC(C)C)NC(=O)[C@H](CCCNC(=N)N)NC(=O)[C@@H](N)C(C)C)[C@@H](C)CC)C(C)C)C(=O)N[C@@H](Cc1c[nH]c2ccccc12)C(=O)N[C@@H](CCCNC(=N)N)C(=O)N[C@@H](CCCNC(=N)N)C(N)=O (H-VRLIVA[Orn]RIWRR-NH2)	Active	103	Dose-dependent effect
CC[C@H](C)[C@H](NC(=O)[C@H](CCCNC(=N)N)NC(=O)[C@H](CCN)NC(=O)[C@H](C)NC(=O)[C@@H](NC(=O)[C@@H](NC(=O)[C@H](CC(C)C)NC(=O)[C@H](CCCNC(=N)N)NC(=O)[C@@H](N)C(C)C)[C@@H](C)CC)C(C)C)C(=O)N[C@@H](Cc1c[nH]c2ccccc12)C(=O)N[C@@H](CCCNC(=N)N)C(=O)N[C@@H](CCCNC(=N)N)C(N)=O (H-VRLIVA[Dab]RIWRR-NH2)	Active	102.5	Dose-dependent effect
H-VRLIVAVRRWRR-NH2	Active	70.2	Dose-dependent effect
CC[C@H](C)[C@H](NC(=O)[C@H](CC(C)C)NC(=O)[C@H](CCCNC(=N)N)NC(=O)[C@@H](N)C(C)C)C(=O)N[C@@H](CCNC(=N)N)C(=O)N[C@@H](C)C(=O)N[C@H](C(=O)N[C@@H](CCCNC(=N)N)C(=O)N[C@H](C(=O)N[C@@H](Cc1c[nH]c2ccccc12)C(=O)N[C@@H](CCCNC(=N)N)C(=O)N[C@@H](CCCNC(=N)N)C(N)=O)[C@@H](C)CC)C(C)C (H-VRLI[Agb]AVRIWRR-NH2)	Active	103.2	Dose-dependent effect
CC[C@H](C)[C@H](NC(=O)[C@H](CCCNC(=N)N)NC(=O)[C@@H](NC(=O)[C@H](C)NC(=O)[C@@H](NC(=O)[C@H](CCNC(=N)N)NC(=O)[C@H](CC(C)C)NC(=O)[C@H](CCCNC(=N)N)NC(=O)[C@@H](N)C(C)C)C(C)C)C(C)C)C(=O)N[C@@H](Cc1c[nH]c2ccccc12)C(=O)N[C@@H](CCCNC(=N)N)C(=O)N[C@@H](CCCNC(=N)N)C(N)=O (H-VRL[Agb]VAVRIWRR-NH2)	Active	98.5	Dose-dependent effect
CC[C@H](C)[C@H](NC(=O)[C@H](CNC(=N)N)NC(=O)[C@@H](NC(=O)[C@H](C)NC(=O)[C@@H](NC(=O)[C@@H](NC(=O)[C@H](CC(C)C)NC(=O)[C@H](CCCNC(=N)N)NC(=O)[C@@H](N)C(C)C)[C@@H](C)CC)C(C)C)C(C)C)C(=O)N[C@@H](Cc1c[nH]c2ccccc12)C(=O)N[C@@H](CCCNC(=N)N)C(=O)N[C@@H](CCCNC(=N)N)C(N)=O (H-VRLIVAV[Agp]IWRR-NH2)	Active	102.2	Dose-dependent effect
CC[C@H](C)[C@H](NC(=O)[C@H](CCCNC(=N)N)NC(=O)[C@H](CNC(=N)N)NC(=O)[C@H](C)NC(=O)[C@@H](NC(=O)[C@@H](NC(=O)[C@H](CC(C)C)NC(=O)[C@H](CCCNC(=N)N)NC(=O)[C@@H](N)C(C)C)[C@@H](C)CC)C(C)C)C(=O)N[C@@H](Cc1c[nH]c2ccccc12)C(=O)N[C@@H](CCCNC(=N)N)C(=O)N[C@@H](CCCNC(=N)N)C(N)=O (H-VRLIVA[Agp]RIWRR-NH2)	Active	106.7	Dose-dependent effect
CC[C@H](C)[C@H](NC(=O)[C@H](CCCNC(=N)N)NC(=O)[C@H](CCNC(=N)N)NC(=O)[C@H](C)NC(=O)[C@@H](NC(=O)[C@@H](NC(=O)[C@H](CC(C)C)NC(=O)[C@H](CCCNC(=N)N)NC(=O)[C@@H](N)C(C)C)[C@@H](C)CC)C(C)C)C(=O)N[C@@H](Cc1c[nH]c2ccccc12)C(=O)N[C@@H](CCCNC(=N)N)C(=O)N[C@@H](CCCNC(=N)N)C(N)=O (H-VRLIVA[Agb]RIWRR-NH2)	Active	104.1	Dose-dependent effect
CC[C@H](C)[C@H](NC(=O)[C@H](CCCNC(=N)N)NC(=O)[C@@H](NC(=O)[C@H](C)NC(=O)[C@@H](NC(=O)[C@@H](NC(=O)[C@H](CC(C)C)NC(=O)[C@H](CCCNC(=N)N)NC(=O)[C@@H](N)C(C)C)[C@@H](C)CC)C(C)C)C(C)C)C(=O)N[C@@H](Cc1c[nH]c2ccccc12)C(=O)N[C@@H](CCCNC(=N)N)C(=O)N[C@@H](CCNC(=N)N)C(N)=O (H-VRLIVAVRIWR[Agb]-NH2)	Active	39.9	Dose-dependent effect
CC[C@H](C)[C@H](NC(=O)[C@H](CC(C)C)NC(=O)[C@H](CCCNC(=N)N)NC(=O)[C@@H](N)C(C)C)C(=O)N[C@H](C(=O)N[C@@H](C)C(=O)N[C@H](C(=O)N[C@@H](CCCNC(=N)N)C(=O)N[C@@H](CNC(=N)N)C(=O)N[C@@H](Cc1c[nH]c2ccccc12)C(=O)N[C@@H](CCCNC(=N)N)C(=O)N[C@@H](CCCNC(=N)N)C(N)=O)C(C)C)C(C)C (H-VRLIVAVR[Agp]WRR-NH2)	Active	104.1	Dose-dependent effect
CC[C@H](C)[C@H](NC(=O)[C@H](CCCNC(=N)N)NC(=O)[C@@H](NC(=O)[C@H](CCNC(=N)N)NC(=O)[C@@H](NC(=O)[C@@H](NC(=O)[C@H](CC(C)C)NC(=O)[C@H](CCCNC(=N)N)NC(=O)[C@@H](N)C(C)C)[C@@H](C)CC)C(C)C)C(C)C)C(=O)N[C@@H](Cc1c[nH]c2ccccc12)C(=O)N[C@@H](CCCNC(=N)N)C(=O)N[C@@H](CCCNC(=N)N)C(N)=O (H-VRLIV[Agb]VRIWRR-NH2)	Active	105.9	Dose-dependent effect
CC[C@H](C)[C@H](NC(=O)[C@H](CCCNC(=N)N)NC(=O)[C@@H](NC(=O)[C@H](C)NC(=O)[C@@H](NC(=O)[C@H](CNC(=N)N)NC(=O)[C@H](CC(C)C)NC(=O)[C@H](CCCNC(=N)N)NC(=O)[C@@H](N)C(C)C)C(C)C)C(C)C)C(=O)N[C@@H](Cc1c[nH]c2ccccc12)C(=O)N[C@@H](CCCNC(=N)N)C(=O)N[C@@H](CCCNC(=N)N)C(N)=O (H-VRL[Agp]VAVRIWRR-NH2)	Active	104.1	Dose-dependent effect
CC[C@H](C)[C@H](NC(=O)[C@H](CCCNC(=N)N)NC(=O)[C@@H](NC(=O)[C@H](C)NC(=O)[C@@H](NC(=O)[C@@H](NC(=O)[C@H](CC(C)C)NC(=O)[C@H](CCCNC(=N)N)NC(=O)[C@@H](N)C(C)C)[C@@H](C)CC)C(C)C)C(C)C)C(=O)N[C@@H](Cc1c[nH]c2ccccc12)C(=O)N[C@@H](CCCNC(=N)N)C(=O)N[C@@H](CCCN)C(N)=O (H-VRLIVAVRIWR[Orn]-NH2)	Active	7.3	Dose-dependent effect
H-VRLIVAVRKWRR-NH2	Active	95.8	Dose-dependent effect
CC[C@H](C)[C@H](NC(=O)[C@H](CCCNC(=N)N)NC(=O)[C@@H](NC(=O)[C@H](C)NC(=O)[C@@H](NC(=O)[C@@H](NC(=O)[C@H](CC(C)C)NC(=O)[C@H](CCN)NC(=O)[C@@H](N)C(C)C)[C@@H](C)CC)C(C)C)C(C)C)C(=O)N[C@@H](Cc1c[nH]c2ccccc12)C(=O)N[C@@H](CCCNC(=N)N)C(=O)N[C@@H](CCCNC(=N)N)C(N)=O (H-V[Dab]LIVAVRIWRR-NH2)	Active	21.5	Dose-dependent effect
